For series [1], the system named is Bacillus subtilis. Nature of the series: Comparative Sporicidal Test, didecyl dimethyl ammonium chloride alone. Format: cell-based, Bacillus subtilis 19659. Particulars: ten minutes contact; for Number Positive, Tube 1 (original culture) / Number Positive, Tube 2 (subculture): of 10. The procedure: For further comparative purposes it was also decided to test the sporicidal activity of didecyl dimethyl ammonium chloride used alone and employing the bacteria and method described below.
Porcelain penicylinders (Fisher Scientific #7-907)
Incubation Time and Temperature
In the above Table 4, Tube 1 is the original culture and Tube 2 is the subculture of Tube 1.
The active ingredient in these tests was didecyl dimethyl ammonium chloride.
In the above Table 4, the identification of the 1% solution and 0.4% solution refers to the level of total quaternary compound being tested.

In series [2] the test system is spores. Nature of the series: effectiveness of quaternary salts with chlorine dioxide. Format: cell-based. To be noted: for results with chlorine dioxide in the testing embodiments: employed with chlorine dioxide; for effectiveness with chlorine dioxide: used with chlorine dioxide for the purposes of the invention.
For series [3] the following is noted: solutions; cited from earlier work.
In series [4] the test system is Bacillus subtilis. In words: Comparative Sporicidal Test, chlorine dioxide alone. Particulars: dilutions 1:10 and 1:25.
The test system of series [5] is spores. To be noted: cited from earlier work.
For series [6] the following is noted: cited from earlier work.

Results on 9 compounds are retold here after patent publication US4073888A, “Chlorine dioxide and quaternary ammonium salts as sterilizing agents” (priority 1975, dated 1978).

SMILES strings stand for the structures. “Also recorded” adds a separate entry of the source.

Consider `CCCCCCCCCC[N+](C)(C)CCCCCCCCCC.[Cl-]` [Didecyl Dimethyl Ammonium Chloride, didecyl dimethyl ammonium chloride], for which, in series [1] (0.4% solution), the “Number Positive, Tube 1 (original culture)” value is listed as 0 and the “Number Positive, Tube 2 (subculture)” value turned out to be 10. Moreover, in series [1] (1% solution), the “Number Positive, Tube 1 (original culture)” value was determined as 0 and the “Number Positive, Tube 2 (subculture)” value was 9. Moreover, the “sporicidal activity (conclusion)” value in series [1] (used alone, 1% and 0.4%) is “poor sporicidal activity; also recorded: only a static effect and not a cidal effect; also recorded: not sporicidal”. In addition, in series [2], the “results with chlorine dioxide in the testing embodiments” value (from here on “results with chlorine dioxide”) is recorded as “outstanding results” and the “effectiveness with chlorine dioxide” value was “highly effective”.

`CCCCCCCCCCCC[N+](C)(C)CCCCCCCCCCCC.[Cl-]` [Didodecyl dimethyl ammonium chloride]: in series [2], the “results with chlorine dioxide” value is recorded as “outstanding results” and the “effectiveness with chlorine dioxide” value is recorded as “highly effective”.

Take `CCCCCCCCCC[N+](C)(C)CCCCCCCC.[Cl-]` [Octyl-decyl dimethyl ammonium chloride]: the “results with chlorine dioxide” value in series [2] is “outstanding results”.

As to `CCCCCCCCCCCC[N+](C)(C)CCCCCCCC.[Cl-]` [Octyl-dodecyl dimethyl ammonium chloride], in series [2], the “results with chlorine dioxide” value is given as “outstanding results” and the “effectiveness with chlorine dioxide” value is on record as “highly effective”.

In the case of `CCCCCCCCCCCCCCCC[N+](C)(C)C.[Br-]` [cetyl trimethyl ammonium bromide, reference compound], the “effectiveness with chlorine dioxide” value in series [2] was “ineffective”.

As to `[O][Cl+][O-]` [chlorine dioxide], the “bactericidal, fungicidal, taste and odor control properties” value in series [3] was “excellent bactericidal, fungicidal, and taste and odor control properties”. For the same compound, in series [4], the “outcome before 21 day observation period” value is reported as “failed completely”. For the same compound, the “sporicidal activity (conclusion)” value in series [4] (2-12 hours contact) was “does not show satisfactory sporicidal activity; also recorded: failure as a sporicide”. For the same compound, in series [4] (twelve hours contact), the sporicidal test outcome is “not passed”. The sporicidal activity entry in series [5] (alone in aqueous solutions) is reported as “not sporicidal”.

Regarding `O=CCCCC=O` [glutaraldehyde], in series [5] (commercial sporicidal composition), the “time required to kill spores” value was 10 h. The shelf-life after activation in series [6] was 14 days.

For the compound `CCCCCCCCCCCCCCCC[N+](C)(C)Cc1ccccc1.[Cl-]` [hexadecyldimethyl benzyl ammonium chloride, reference compound], the “effectiveness with chlorine dioxide” value in series [2] is “ineffective”.

Turning to `CCCCCCCCCCCC(=O)OCCNC(=O)C[n+]1ccccc1` [lauric acid ester of colaminoformylmethyl pyridinium chloride, reference compound], the “effectiveness with chlorine dioxide” value in series [2] is recorded as “ineffective”.
